The values below are quoted from earlier work in US20180256623A1, “COMPOSITIONS AND METHOD FOR REGULATING ADIPOSE TISSUE LIPOLYSIS, INSULIN-RESISTANCE, AND HYPERGLYCEMIA” (University of Virginia Patent Foundation, priority 2015, published 2018).

One series concerns the target T1, HSL (Homo sapiens, UniProt Q05469).
T1 sequence (Q05469 1-1076): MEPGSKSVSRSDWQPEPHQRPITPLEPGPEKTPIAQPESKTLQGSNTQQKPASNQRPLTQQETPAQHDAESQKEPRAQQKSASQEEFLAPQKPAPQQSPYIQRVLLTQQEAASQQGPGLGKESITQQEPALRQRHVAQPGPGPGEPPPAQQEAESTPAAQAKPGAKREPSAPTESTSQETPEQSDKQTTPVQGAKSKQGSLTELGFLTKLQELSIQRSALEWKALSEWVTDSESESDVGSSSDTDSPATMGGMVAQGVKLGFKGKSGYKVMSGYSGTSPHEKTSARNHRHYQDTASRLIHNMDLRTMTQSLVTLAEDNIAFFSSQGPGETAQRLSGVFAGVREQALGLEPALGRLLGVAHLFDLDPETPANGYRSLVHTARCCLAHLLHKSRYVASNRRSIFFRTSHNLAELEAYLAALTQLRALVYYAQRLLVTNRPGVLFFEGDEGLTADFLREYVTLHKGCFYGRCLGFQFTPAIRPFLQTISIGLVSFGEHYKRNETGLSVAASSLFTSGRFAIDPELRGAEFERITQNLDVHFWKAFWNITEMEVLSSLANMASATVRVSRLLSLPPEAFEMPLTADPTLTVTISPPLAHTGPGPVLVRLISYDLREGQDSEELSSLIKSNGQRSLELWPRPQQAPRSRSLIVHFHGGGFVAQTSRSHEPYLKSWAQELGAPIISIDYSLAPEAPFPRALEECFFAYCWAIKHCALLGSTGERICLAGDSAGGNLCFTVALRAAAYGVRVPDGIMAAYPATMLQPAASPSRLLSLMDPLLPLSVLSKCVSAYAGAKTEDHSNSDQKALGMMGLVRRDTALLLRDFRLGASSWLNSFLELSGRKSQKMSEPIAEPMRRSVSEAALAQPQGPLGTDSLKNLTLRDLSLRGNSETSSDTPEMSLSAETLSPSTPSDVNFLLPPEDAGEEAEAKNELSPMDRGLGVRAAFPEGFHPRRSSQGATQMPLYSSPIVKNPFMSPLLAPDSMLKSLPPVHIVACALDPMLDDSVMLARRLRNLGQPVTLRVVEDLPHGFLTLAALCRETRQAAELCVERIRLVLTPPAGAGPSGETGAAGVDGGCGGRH
As to conditions: Table 1, 4-substituted 5-(2H)-isoxazolones; means of three experiments; cited from earlier work.
In general, IC50 refers to the concentration at which inhibition is half-maximal. For the compound `Cc1c(C2CCSCC2)c(=O)on1C(=O)N1CCCCC1` [Compound 15], the IC50 is 55 nM.

As for `Cc1c(-c2ccccc2)c(=O)on1C(=O)N1CCCCC1` [Compound 19], the IC50 was 17 nM.

The same series, now with this note: Table 2, acyclic ureas; means of three experiments; Na = not active; cited from earlier work.
For the compound `Cc1c(C(C)C)c(=O)on1C(=O)NC(C)(C)C` [Compound 20], the IC50 was above 1000 nM.

As for `Cc1c(C(C)C)c(=O)on1C(=O)Nc1ccccc1` [Compound 21], the IC50 is above 1000 nM.

The same series, now with this note: Table 3, cyclic amine-derived ureas; means of three experiments; Na = not active; cited from earlier work.
For `Cc1c(C(C)C)c(=O)on1C(=O)N1CCNCC1` [Compound 46], the IC50 is above 1000 nM.

On to `Cc1c(C(C)C)c(=O)on1C(=O)N1CCc2ccccc21` [Compound 44], for which the IC50 was above 1000 nM.

Still in this series, the particulars now being: piperidine derivatives; means of three experiments; Na = not active; cited from earlier work.
For the compound `Cc1c(C(C)C)c(=O)on1C(=O)N1CCC(C(=O)N(C)C)CC1` [Compound 84], the half-inhibitory concentration (IC50) was above 1000 nM.

`Cc1nnc(C2CCN(C(=O)n3oc(=O)c(C(C)C)c3C)CC2)o1` [Compound 86]: the IC50 was above 1000 nM.

Take `Cc1c(C(C)C)c(=O)on1C(=O)N1CCC(O)(c2ccccc2)CC1` [Compound 92]: the IC50 is above 1000 nM.

With `Cc1c(C(C)C)c(=O)on1C(=O)N1CCC(C#N)(c2ccccc2)CC1` [Compound 91], the IC50 is above 1000 nM.

The next series relates to 3T3-L1. As to conditions: Table 1, 4-substituted 5-(2H)-isoxazolones; means of three experiments; cited from earlier work.
Regarding `Cc1c(C2CCSCC2)c(=O)on1C(=O)N1CCCCC1` [Compound 15], the half-maximal inhibitory concentration (IC50) was 380 nM.

For the compound `Cc1c(Sc2ccccc2)c(=O)on1C(=O)N1CCCCC1` [Compound 3], the IC50 is 190 nM.

For the compound `Cc1c(C(C)(C)C)c(=O)on1C(=O)N1CCCCC1` [Compound 10], the IC50 is 90 nM.

For the compound `Cc1c(C2CCSCC2)c(=O)on1C(=O)N1CCCCC1` [Compound 14], the IC50 was 98 nM.

For the compound `Cc1c(CC(C)C)c(=O)on1C(=O)N1CCCCC1` [Compound 9], the IC50 is 32 nM.

Consider `Cc1c(-c2ccccc2)c(=O)on1C(=O)N1CCCCC1` [Compound 19], for which the IC50 was 150 nM.

Consider `CCc1c(C)n(C(=O)N2CCCCC2)oc1=O` [Compound 6], for which the IC50 is 325 nM.

`Cc1c(CCOc2ccccc2)c(=O)on1C(=O)N1CCCCC1` [Compound 17]: the concentration for half-maximal inhibition (IC50) was 2 nM.

On to `Cc1c(Cc2ccccc2)c(=O)on1C(=O)N1CCCCC1` [Compound 4], for which the half-maximal inhibitory concentration (IC50) is 90 nM.

As for `Cc1c(C2CCOCC2)c(=O)on1C(=O)N1CCCCC1` [Compound 13], the 50% inhibitory concentration (IC50) was 200 nM.

On to `COCCc1c(C)n(C(=O)N2CCCCC2)oc1=O` [Compound 16], for which the IC50 is 180 nM.

As for `Cc1c(C2CCCCC2)c(=O)on1C(=O)N1CCCCC1` [Compound 12], the IC50 was 27 nM.

Consider `Cc1c(C2CCCC2)c(=O)on1C(=O)N1CCCCC1` [Compound 11], for which the IC50 is 22 nM.

In the case of `Cc1c(Sc2ccc(Cl)cc2)c(=O)on1C(=O)N1CCCCC1` [Compound 1], the IC50 was 135 nM.

In the case of `Cc1c(C)n(C(=O)N2CCCCC2)oc1=O` [Compound 5], the IC50 was 655 nM.

As for `Cc1c(C(C)C)c(=O)on1C(=O)N1CCCCC1` [Compound 8], the IC50 was 75 nM.

Staying with this series, now noted: Table 2, acyclic ureas; means of three experiments; Na = not active; cited from earlier work.
On to `Cc1c(C(C)C)c(=O)on1C(=O)N(C)Cc1ccco1` [Compound 30], for which the half-inhibitory concentration (IC50) is 9 nM.

As to `Cc1c(C(C)C)c(=O)on1C(=O)N(C)c1ccc(Cl)cc1` [Compound 37], the IC50 was above 1000 nM.

Regarding `CCN(CC)C(=O)n1oc(=O)c(C(C)C)c1C` [Compound 39], the half-inhibitory concentration (IC50) is 600 nM.

`Cc1c(C(C)C)c(=O)on1C(=O)N(C)C1CCCCC1` [Compound 24]: the IC50 is above 1000 nM.

In the case of `Cc1c(C(C)C)c(=O)on1C(=O)N(C)Cc1ccccc1F` [Compound 26], the IC50 is 10 nM.

As to `Cc1c(C(C)C)c(=O)on1C(=O)N(C)CCc1ccccc1` [Compound 33], the 50% inhibitory concentration (IC50) is 300 nM.

As to `Cc1c(C(C)C)c(=O)on1C(=O)N(C)Cc1ccccc1` [Compound 25], the concentration for half-maximal inhibition (IC50) is 67 nM.

For `Cc1c(C(C)C)c(=O)on1C(=O)N(C)Cc1ccc(F)cc1` [Compound 28], the IC50 was 1000 nM.

Staying with this series, now noted: Table 3, cyclic amine-derived ureas; means of three experiments; Na = not active; cited from earlier work.
Regarding `Cc1c(C(C)C)c(=O)on1C(=O)N1CCCC1` [Compound 41], the half-maximal inhibitory concentration (IC50) is 28 nM.

With `Cc1c(C(C)C)c(=O)on1C(=O)N1CCN(Cc2ccccc2)CC1` [Compound 48], the half-inhibitory concentration (IC50) was 56 nM.

For the compound `Cc1c(C(C)C)c(=O)on1C(=O)N1CC=CC1` [Compound 43], the IC50 is 120 nM.

`Cc1c(C(C)C)c(=O)on1C(=O)N1CCOCC1` [Compound 53]: the IC50 is above 1000 nM.

As to `Cc1c(C(C)C)c(=O)on1C(=O)N1CCCCCC1` [Compound 55], the IC50 was 215 nM.

As to `Cc1c(C(C)C)c(=O)on1C(=O)N1CCN(c2ccccc2)CC1` [Compound 49], the half-maximal inhibitory concentration (IC50) was 27 nM.

With `Cc1c(C(C)C)c(=O)on1C(=O)N1CCSCC1` [Compound 54], the 50% inhibitory concentration (IC50) was 290 nM.

On to `Cc1c(C(C)C)c(=O)on1C(=O)N1CCN(C)CC1` [Compound 47], for which the 50% inhibitory concentration (IC50) is above 1000 nM.

As to `Cc1c(C(C)C)c(=O)on1C(=O)N1CCCCC1` [Compound 8], the IC50 was 75 nM.

Staying with this series, now noted: piperidine derivatives; means of three experiments; Na = not active; cited from earlier work.
For `Cc1ccc(C2CCN(C(=O)n3oc(=O)c(C(C)C)c3C)CC2)cc1` [Compound 77], the IC50 was 246 nM.

For the compound `Cc1c(C(C)C)c(=O)on1C(=O)N1CCC(c2ccccc2)CC1` [Compound 70], the IC50 is 33 nM.

For the compound `Cc1c(C(C)C)c(=O)on1C(=O)N1CCCC(CO)C1` (centres unmarked) [Compound 60], the concentration for half-maximal inhibition (IC50) was 800 nM.

On to `Cc1c(C(C)C)c(=O)on1C(=O)N1CCC[C@@H](C)C1` [Compound 58], for which the IC50 is 187 nM.

Consider `CCCCc1c(C)n(C(=O)N2CCC(C)CC2)oc1=O` [Compound 64], for which the IC50 was 10 nM.

On to `Cc1c(C(C)C)c(=O)on1C(=O)N1CCC(c2cccc(F)c2)CC1` [Compound 74], for which the IC50 was 4 nM.

On to `Cc1c(C(C)C)c(=O)on1C(=O)N1CCC(=O)CC1` [Compound 83], for which the IC50 was 150 nM.

`Cc1c(C(C)C)c(=O)on1C(=O)N1CCC[C@H](C)C1` [Compound 59]: the IC50 is 28 nM.

With `CCOC(=O)C1CCCN(C(=O)n2oc(=O)c(C(C)C)c2C)C1` (centres unmarked) [Compound 62], the concentration for half-maximal inhibition (IC50) is 170 nM.

Turning to `COCCc1c(C)n(C(=O)N2CCC(c3ccccc3)CC2)oc1=O` [Compound 73], the half-maximal inhibitory concentration (IC50) was 5 nM.

Consider `Cc1c(C2CCCC2)c(=O)on1C(=O)N1CCC(c2ccccc2)CC1` [Compound 72], for which the IC50 was 8 nM.

On to `Cc1c(C(C)C)c(=O)on1C(=O)N1CC(C)CC(C)C1` (centres unmarked) [Compound 90], for which the IC50 was 140 nM.

`Cc1c(C(C)C)c(=O)on1C(=O)N1CCC(O)(c2ccccc2)CC1` [Compound 92]: the IC50 is above 1000 nM.

In the case of `Cc1c(C2CCSCC2)c(=O)on1C(=O)N1CCC(C)CC1` [Compound 68], the IC50 is 24 nM.

Consider `CCOCCc1c(C)n(C(=O)N2CCC(C)CC2)oc1=O` [Compound 67], for which the IC50 was 20 nM.

For `Cc1c(C(C)C)c(=O)on1C(=O)N1CCC(C)CC1` [Compound 63], the half-maximal inhibitory concentration (IC50) was 40 nM.

As to `COCCc1c(C)n(C(=O)N2CCC(c3cccc(C)c3)CC2)oc1=O` [Compound 76], the half-maximal inhibitory concentration (IC50) is 4 nM.

With `Cc1c(C(C)C)c(=O)on1C(=O)N1CC(C)CCC1C` (centres unmarked) [Compound 88], the IC50 was above 1000 nM.

As to `COCCc1c(C)n(C(=O)N2CCC(c3cccc(F)c3)CC2)oc1=O` [Compound 75], the IC50 is 0.2 nM.

As to `Cc1c(C(C)C)c(=O)on1C(=O)N1CCCCC1C` (centres unmarked) [Compound 57], the IC50 was 400 nM.

Take `Cc1c(C2CCCCC2)c(=O)on1C(=O)N1CCC(C)CC1` [Compound 66]: the IC50 is 20 nM.

In the case of `Cc1c(C(C)C)c(=O)on1C(=O)N1CCCCC1` [Compound 8], the IC50 was 75 nM.
